Data set [1] is described as follows: RP-HPLC temperature profiling (peptide self-association parameter PA). Type of data set: physicochemical. The following applies: enantiomer pairs of V681 analogs, 5° C. to 80° C., relative to peptide C. The gist of the method:
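Peptide retention was profiled by RP-HPLC at pH 2 from 5 °C to 80 °C in 3 °C increments, using a linear gradient of 0.5% acetonitrile/min. The monomeric random-coil control peptide C profile was subtracted. PA is the maximum change in retention time relative to control C; higher PA means greater self-association.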

Data set [2] relates to human erythrocytes. The following applies: WO 2006/065977, cited from earlier work.
For data set [3] the following is noted: 50% TFE in 0.05% TFA; cited from earlier work.
Data set [4] in a line: Circular dichroism spectroscopy (helical structure). Type of data set: physicochemical. (In general: CD spectra are sensitive to the conformation of chiral molecules.)
Data set [5] is described as follows: RP-HPLC retention as measure of overall peptide hydrophobicity. The data set is classed as physicochemical. The following applies: 80° C. On the procedure:
Crude and purified peptides were analyzed on an Agilent 1100 series liquid chromatograph (Little Falls, Del.). Runs were performed on a Zorbax 300 SB-C8 column (150×2.1 mm I.D.; 5 μm particle size, 300 Å pore size) from Agilent Technologies using linear AB gradient (1% acetonitrile/min) and a flow rate of 0.25 ml/min, where eluant A was 0.2% aqueous TFA, pH 2 and eluant B was 0.2% TFA in acetonitrile.

In data set [6] the test system is human erythrocytes. Kind of data set: Hemolytic activity against human erythrocytes (HC50 / MHC, microtiter dilution). Type of data set: cell-based. The following applies: V681 analog studies.
Another data set deals with Gram-negative bacteria. Kind of data set: MIC against Gram-negative bacteria (V681 analog studies). The data set is classed as cell-based. On the procedure:
Minimal inhibitory concentrations (MICs) are determined using a standard microtiter dilution method, with 3 sets of determinations, in LB (Luria-Bertani) no-salt medium (10 g of tryptone and 5 g of yeast extract per liter). In some cases, Mueller Hinton (MH) medium or Brain Heart Infusion (BHI) medium is used.
Briefly, cells were grown overnight at 37° C. in LB and diluted in the same medium. Serial dilutions of the peptides are added to the microtiter plates in a volume of 100 μl followed by 10 μl of bacteria to give a final inoculum of 5×10^5 colony-forming units/ml. Plates are incubated at 37° C. for 24 hours and MICs determined as the lowest peptide concentration that inhibited growth. Alternatively, minimal inhibitory concentrations are determined using a standard microtiter dilution method in a Mueller-Hinton (MH) medium. Briefly, cells are grown overnight at 37° C. in MH broth and diluted in the same medium. In some cases, serial dilutions of the peptides are added to the microtiter plates in a volume of 100 μl followed by 10 μl of bacteria to give a final inoculum of 1×10^5 colony-forming units/ml. Plates are incubated at 37° C. for 24 hours and MICs are determined as the lowest peptide concentration that inhibited growth.

For data set [7], the system named is human erythrocytes. Kind of data set: Hemolytic activity against human erythrocytes (HC50 / MHC, microtiter dilution). Type of data set: cell-based. Here is the method:
Hemoglobin release was determined spectrophotometrically at 570 nm. The hemolytic activity was determined as the peptide concentration that caused 50% hemolysis of erythrocytes after 18 h (HC50). […] HC50 was determined by a plot of peptide concentration versus percent lysis.

Values after ≈ are worked out from the molar mass of the structure shown. “Also recorded” adds a separate entry of the source. Where two headings read alike, the source gives them in different places. Where a SMILES comes first, the peptide text is derived from it.

`CC[C@H](C)[C@H](NC(=O)[C@H](C)NC(=O)[C@H](CCCCN)NC(=O)[C@H](CC(C)C)NC(=O)[C@H](C)NC(=O)[C@@H](NC(=O)[C@H](Cc1c[nH]cn1)NC(=O)[C@H](CC(C)C)NC(=O)[C@@H](NC(=O)[C@@H](NC(=O)[C@H](CCCCN)NC(=O)[C@@H](C)NC(=O)[C@H](C)NC(=O)[C@H](CO)NC(=O)[C@H](CCCCN)NC(=O)[C@H](Cc1ccccc1)NC(=O)[C@@H](NC(=O)[C@H](CCCCN)NC(=O)[C@H](CC(C)C)NC(=O)[C@H](Cc1ccccc1)NC(=O)[C@H](CO)NC(=O)[C@H](CCCCN)NC(=O)[C@H](Cc1c[nH]c2ccccc12)NC(=O)[C@H](CCCCN)NC(C)=O)[C@@H](C)O)[C@@H](C)O)C(C)C)[C@@H](C)O)C(=O)N[C@@H](CO)C(=O)N[C@@H](CO)C(N)=O` [NAD] (HELM PEPTIDE1{[ac].K.W.K.S.F.L.K.T.F.K.S.A.[dA].K.T.V.L.H.T.A.L.K.A.I.S.S.[am]}$$$$V2.0): the “PA (peptide self-association parameter)” value in data set [1] was found to be 4.1. Moreover, the Hemolytic activity was 250 µg/mL with human erythrocytes [2] (after 12 hours) and 31.3 µg/mL in the data set with human erythrocytes [2] (after 18 hours).

`CC[C@H](C)[C@H](NC(=O)[C@H](C)NC(=O)[C@H](CCCCN)NC(=O)[C@H](CC(C)C)NC(=O)[C@H](C)NC(=O)[C@@H](NC(=O)[C@H](Cc1c[nH]cn1)NC(=O)[C@H](CC(C)C)NC(=O)[C@@H](NC(=O)[C@@H](NC(=O)[C@H](CCCCN)NC(=O)[C@@H](NC(=O)[C@H](C)NC(=O)[C@H](CO)NC(=O)[C@H](CCCCN)NC(=O)[C@H](Cc1ccccc1)NC(=O)[C@@H](NC(=O)[C@H](CCCCN)NC(=O)[C@H](CC(C)C)NC(=O)[C@H](Cc1ccccc1)NC(=O)[C@H](CO)NC(=O)[C@H](CCCCN)NC(=O)[C@H](Cc1c[nH]c2ccccc12)NC(=O)[C@H](CCCCN)NC(C)=O)[C@@H](C)O)C(C)C)[C@@H](C)O)C(C)C)[C@@H](C)O)C(=O)N[C@@H](CO)C(=O)N[C@@H](CO)C(N)=O` [Peptide V681] (Ac-KWKSFLKTFKSAVKTVLHTALKAISS-NH2): the “PA (peptide self-association parameter)” value in data set [1] came to 7.2. The “Transition temperature Tm (50% of α-helical structure denatured)” value in data set [3] was 79.3 °C. For the same molecule, the “[θ]222 molar ellipticity” value in data set [4] (50% TFE) was −27,300; in data set [4] (benign conditions (100 mM KCl, 50 mM aq. PO4, pH 7)) it was −12,900. Also, the α-helical content is reported as 94% in data set [4] (50% TFE) and 45% in data set [4] (benign conditions). The “Change in hydrophobicity (retention time) relative to PVL” value in data set [5] (polar face substitution) is -0.35 min. The “Hemolytic activity, minimal hemolytic concentration (MHC)” value in the data set with human erythrocytes [6] was found to be 15.6 µg/mL.

For the molecule `CC[C@H](C)[C@H](NC(=O)[C@H](C)NC(=O)[C@H](CCCCN)NC(=O)[C@H](CC(C)C)NC(=O)[C@H](C)NC(=O)[C@@H](NC(=O)[C@H](Cc1cnc[nH]1)NC(=O)[C@H](CC(C)C)NC(=O)[C@@H](NC(=O)[C@@H](NC(=O)[C@H](CCCCN)NC(=O)[C@H](CCCCN)NC(=O)[C@H](C)NC(=O)[C@H](CO)NC(=O)[C@H](CCCCN)NC(=O)[C@H](Cc1ccccc1)NC(=O)[C@@H](NC(=O)[C@H](CCCCN)NC(=O)[C@H](CC(C)C)NC(=O)[C@H](Cc1ccccc1)NC(=O)[C@H](CO)NC(=O)[C@H](CCCCN)NC(=O)[C@H](Cc1c[nH]c2ccccc12)NC(=O)[C@H](CCCCN)NC(C)=O)[C@@H](C)O)[C@@H](C)O)C(C)C)[C@@H](C)O)C(=O)N[C@@H](CO)C(=O)N[C@@H](CO)C(N)=O` [NKL], the “PA (peptide self-association parameter)” value in data set [1] is on record as 2.1. Further, in the data set on Gram-negative bacteria, the “MIC against Gram-negative bacteria” value was 3.1 µg/mL (≈ 1.04 µM). Also, the “Fold decrease in hemolytic activity compared to V681” value in the data set with human erythrocytes [7] is on record as over 32 fold. For the same molecule, the “Change in hydrophobicity (retention time) relative to NVL (V681)” value in data set [5] (non-polar face substitution) is -12.61 min. The “Hemolytic activity, minimal hemolytic concentration (MHC)” value in the data set with human erythrocytes [6] is recorded as “undetectable level; also recorded: non-hemolytic; also recorded: no detectable hemolytic activity; also recorded: no measurable activity”.
